*1 amine or outer side, *2 acyl side, *3 side chain or, on linkers, in order; H or OH if unused. Where a SMILES comes first, the peptide text is derived from it. Bridges are numbered along the chain shown (N, C = ends). Roman numbers before positions name the chains, in order. [ ]: non-standard residue; d: D form. X1 = O=C(CCOCCOCCOCCOCCOCCOCCOCCOCCOCCOCCOCCOCCOCCOCCOCCOCCOCCOCCOCCOCCOCCOCCOCCOCCn1cc(CCC(=O)[*:2])nn1)[*:1]; X3 = O=C(CCc1cn(CCOCCOCCOCCOCCOCCOCCOCCOCCOCCOCCOCCOCCOCCOCCOCCOCCOCCOCCOCCOCCOCCOCCOCCOCCC(=O)[*:2])nn1)[*:1]; TATB = O=C(C[*:1])N1CN(C(=O)C[*:2])CN(C(=O)C[*:3])C1; X2 = C(c1nc(C[*:2])nc(C[*:3])n1)[*:1]; hArg = N=C(N)NCCCC[C@H](N)C(=O)O; tBuAla = CC(C)(C)C[C@H](N)C(=O)O; Agb = N=C(N)NCC[C@H](N)C(=O)O
How the values were obtained:
SARS-CoV-2 [1] = conditions: 3 h
SARS-CoV-2 [2] = conditions: hamster, in vivo
[3] = test system: SARS-CoV-2 pseudotyped HIV-1 virions; conditions: 72 h
[4] = test system: SARS-CoV-2 pseudotyped HIV-1 virions, B.1.1.7 (Alpha)
[5] = test system: SARS-CoV-2 pseudotyped HIV-1 virions, B.1.351 (Beta)
[6] = test system: SARS-CoV-2 pseudotyped HIV-1 virions, P.1 (Gamma)
[7] = test system: SARS-CoV-2 pseudotyped HIV-1 virions, B.1.617.2 (Delta)
[8] = test system: SARS-CoV-2 pseudotyped HIV-1 virions, B.1.427 (California)

CC[C@H](C)[C@@H]1NC(=O)[C@H](CCSC)NC(=O)[C@@H]2CSCC(=O)N3CN(CN(C3)C(=O)CSC[C@@H](C(=O)N[C@@H](CCCCNC(=O)CCOCCOCCOCCOCCOCCOCCOCCOCCOCCOCCOCCOCCOCCOCCOCCOCCOCCOCCOCCOCCOCCOCCOCCOCCn3cc(CCC(=O)NCCCC[C@H](NC(=O)[C@@H]4CSCc5nc6nc(n5)CSC[C@H](NC(C)=O)C(=O)N5CCC[C@H]5C(=O)N[C@@H](Cc5ccc(O)cc5)C(=O)N[C@@H](C(C)C)C(=O)N[C@@H](C)C(=O)NCC(=O)N[C@@H](CCNC(=N)N)C(=O)N[C@H](C)C(=O)N[C@@H]([C@@H](C)O)C(=O)N[C@@H](CSC6)C(=O)N[C@@H](CC(C)C)C(=O)N[C@@H](CC(C)(C)C)C(=O)N4)C(N)=O)nn3)C(N)=O)NC(=O)[C@H](C)NC1=O)C(=O)CSC[C@H](NC(C)=O)C(=O)N[C@@H]([C@@H](C)CC)C(=O)N1CCC[C@H]1C(=O)N[C@@H](CC(C)C)C(=O)N[C@@H](CC(=O)O)C(=O)N[C@@H](Cc1c[nH]c3ccccc13)C(=O)N[C@@H]([C@@H](C)O)C(=O)N2 [BCY18656] was tested. Which IC50 (SARS-CoV-2 [1]) did it give?
The IC50 was 0.314 nM.

And the “viral load of SARS-CoV-2” value (SARS-CoV-2 [2])?
The value was “reduces the viral load”.

How did the IC50 [3] turn out when CC(=O)N[C@H]1CSCC(=O)N2CN3CN(C2)C(=O)CSC[C@H](NC(=O)[C@H](C(C)C)NC(=O)[C@@H]2CCCN2C(=O)[C@H](CC(N)=O)NC(=O)[C@H](CC(=O)O)NC(=O)[C@@H]2CCCN2C(=O)[C@H](CC(N)=O)NC(=O)[C@H](C)NC1=O)C(=O)N[C@@H](CCCNC(=N)N)C(=O)N[C@@H](Cc1ccccc1)C(=O)N[C@@H](Cc1ccc(O)cc1)C(=O)N[C@H](C(=O)N[C@@H](CCCCNC(=O)CCOCCOCCOCCOCCOCCOCCOCCOCCOCCOCCOCCOCCOCCOCCOCCOCCOCCOCCOCCOCCOCCOCCOCCOCCn1cc(CCC(=O)NCCCC[C@H](NC(=O)[C@@H]2CSCc4nc5nc(n4)CSC[C@H](NC(C)=O)C(=O)N4CCC[C@H]4C(=O)N[C@@H](Cc4ccc(O)cc4)C(=O)N[C@@H](C(C)C)C(=O)N[C@@H](C)C(=O)NCC(=O)N[C@@H](CCCCNC(=N)N)C(=O)N[C@H](C)C(=O)N[C@@H]([C@@H](C)O)C(=O)N[C@@H](CSC5)C(=O)N[C@@H](CC(C)C)C(=O)N[C@@H](CC(C)(C)C)C(=O)N2)C(N)=O)nn1)C(N)=O)CSCC3=O [BCY18786] (I: Ac-CANPDNPVCRFYCK-NH2 / II: Ac-CPYVAG[hArg][dA]TCL[tBuAla]CK-NH2; linker I:1-I:9-I:13 via TATB; linker I:14-II:14 via X1; linker II:1-II:10-II:13 via X2) was run?
The IC50 was 0.2 nM.

And the IC50 [4]?
The IC50 was 6 nM.

And the IC50 [5]?
Its IC50 is 272 nM.

What about the IC50 [6] of the same compound?
Its IC50 is 140 nM.

What about the IC50 [7] of the same compound?
Its IC50 is 437 nM.

And the IC50 [8]?
The IC50 was 93 nM.

What about the IC50 (SARS-CoV-2 [1]) of the same compound?
Its IC50 is 246 nM.

CC(=O)N[C@@H](C)C(=O)N[C@H]1CSCC(=O)N2CN3CN(C2)C(=O)CSC[C@H](NC(=O)[C@H](C(C)C)NC(=O)[C@@H]2CCCN2C(=O)[C@H](CC(N)=O)NC(=O)[C@H](CC(=O)O)NC(=O)[C@@H]2CCCN2C(=O)[C@H](CO)NC(=O)[C@H](C)NC1=O)C(=O)N[C@@H](CCCNC(=N)N)C(=O)N[C@@H](Cc1ccccc1)C(=O)N[C@@H](Cc1ccc(O)cc1)C(=O)N[C@H](C(=O)N[C@@H](C)C(=O)N[C@@H](CCCCNC(=O)CCc1cn(CCOCCOCCOCCOCCOCCOCCOCCOCCOCCOCCOCCOCCOCCOCCOCCOCCOCCOCCOCCOCCOCCOCCOCCOCCC(=O)NCCCC[C@H](NC(=O)[C@@H]2CSCc4nc5nc(n4)CSC[C@H](NC(C)=O)C(=O)N4CCC[C@H]4C(=O)N[C@@H](Cc4ccc(O)cc4)C(=O)N[C@@H](C(C)C)C(=O)N[C@@H](C)C(=O)NCC(=O)N[C@@H](CCNC(=N)N)C(=O)N[C@H](C)C(=O)N[C@@H]([C@@H](C)O)C(=O)N[C@@H](CSC5)C(=O)N[C@@H](CC(C)C)C(=O)N[C@@H](CC(C)(C)C)C(=O)N2)C(N)=O)nn1)C(N)=O)CSCC3=O [BCY17191] (I: Ac-ACASPDNPVCRFYCAK-NH2 / II: Ac-CPYVAG[Agb][dA]TCL[tBuAla]CK-NH2; linker I:2-I:10-I:14 via TATB; linker I:16-II:14 via X3; linker II:1-II:10-II:13 via X2) was tested. Which IC50 [3] did it give?
Its IC50 is 10.6 nM.

How did the IC50 [3] turn out when CC(=O)N[C@H]1CSCc2nc3nc(n2)CSC[C@H](NC(=O)[C@H]([C@@H](C)O)NC(=O)[C@@H](C)NC(=O)[C@H](CCNC(=N)N)NC(=O)CNC(=O)[C@H](C)NC(=O)[C@H](C(C)C)NC(=O)[C@H](Cc2ccc(O)cc2)NC(=O)[C@@H]2CCCN2C1=O)C(=O)N[C@@H](CC(C)C)C(=O)N[C@@H](CC(C)(C)C)C(=O)N[C@H](C(=O)N[C@@H](CCCCNC(=O)CCOCCOCCOCCOCCOCCOCCOCCOCCOCCOCCOCCOCCOCCOCCOCCOCCOCCOCCOCCOCCOCCOCCOCCOCCn1cc(CCC(=O)NCCCC[C@H](NC(=O)[C@@H]2CSCc4nc5nc(n4)CSC[C@H](NC(C)=O)C(=O)N4CCC[C@H]4C(=O)N[C@@H](Cc4ccc(O)cc4)C(=O)N[C@@H](C(C)C)C(=O)N[C@@H](C)C(=O)NCC(=O)N[C@@H](CCNC(=N)N)C(=O)N[C@H](C)C(=O)N[C@@H]([C@@H](C)O)C(=O)N[C@@H](CSC5)C(=O)N[C@@H](CC(C)C)C(=O)N[C@@H](CC(C)(C)C)C(=O)N2)C(N)=O)nn1)C(N)=O)CSC3 [BCY17196] (I: Ac-CPYVAG[Agb][dA]TCL[tBuAla]CK-NH2 / II: Ac-CPYVAG[Agb][dA]TCL[tBuAla]CK-NH2; linker I:1-I:10-I:13, II:1-II:10-II:13 via X2; linker I:14-II:14 via X1) was run?
Its IC50 is 15300 nM.

— patent US20240108737A1, “ANTI-INFECTIVE BICYCLIC PEPTIDE LIGANDS” (priority 2021, published 2024)
